Read-outs that look alike come from different tables or passages of the source.
How the values were obtained:
[1] = test system: 106 representative proteins that are drug discovery targets; assay: Eurofins selectivity panel of 106 representative proteins
TK6 cells = test system: TK6 cells
Method: These articles have been recommended for use in the OECD test guideline (Test No. 487)[49]. For metabolic activation, pre-cultured TK6 cells with the culture medium were supplemented with Sprague–Dawley rat liver mix (S9 mix, IEDA TRADING CORPORATION, Japan) at 3.33 vol%. Then, compound was mixed with the cell suspension and treated under the following treatment conditions: • Short-term treatment for 3 h without S9 mix, followed by a 21-h culture (−S9 mix assay), • Short-term treatment for 3 h with S9 mix, followed by a 21-h culture (+S9 mix assay), or • Continuous treatment for 24 h without S9 mix (24-h assay). For treatment conditions 1 and 2, the cells in each well were centrifuged after the 3-h treatment, the supernatants were discarded, and the cells were washed twice with culture medium. The cells were further cultured with fresh culture medium for 21 h. The compound-treated cells were examined by the unaided eye for precipitation of compound at the start and end of treatment. After treatment, the rest of each cell suspension was centrifuged and then the cells were suspended in a 0.075 mol/L KCl solution at room temperature for 10 min. Then, 25 vol% acetic acid containing methanol was added and the centrifuged cells were fixed. The fixed cells were resuspended in a small amount of 3 vol% acetic acid containing methanol, which was changed two times by centrifugation. Finally, a drop of the cell suspension was transferred onto a slide and dried at room temperature. The slides were stained at room temperature in a 3 vol% Giemsa solution (Merck KGaA) diluted with Sörensen phosphate buffer (1/15 mol/L, pH 6.8, Muto Pure Chemicals Co. Ltd.). Four slides per dose (2 slides per well) were prepared. Each slide was coded randomly. The test was conducted at the following doses of TEC-1. -S9 mix assay: 1.5, 1.7, 1.9, 2.1, 2.3, 2.5, 2.7, 2.9, and 3.1 µg/mL, + S9 mix assay: 1.9, 2.1, 2.3, 2.5, 2.7, 2.9, 3.1, 3.3, and 3.5 µg/mL, 24-h assay: 0.9, 1.1, 1.3, 1.5, 1.7, 1.9, 2.1, 2.3, and 2.5 µg/mL. To perform scoring for compound and negative control groups, the number of cells in the suspensions was counted using a Coulter Counter (Z2; Beckman Coulter, Inc.). The positive control groups were not determined. A portion (0.5 mL) of the cell suspension was diluted with 20 mL of Isoton II, and 0.5 mL of this solution was used for cell counts. The cell number per 1 mL at each culture was calculated by the following formula. Cellnumber/mL=Dilutionfactor×valueof1stcount+valueof2ndcount/2×2
The population doubling (PD) and relative population doubling (RPD) at each concentration was calculated by the following formula. PD=log10cell number at the end of culture/cell number at the start of treatment∗/log102∗:1×10^5cells/mL.
RPD%=PD of the compound-treated group/PD of the negative control group×100 For the treated groups, the 3 consecutive concentrations were selected as follows. […] For all concentrations, 4000 mononuclear cells with cytoplasm were analyzed and the number of cells with micronucleus (micronuclei) was counted using a microscope (× 600). Micronucleus is identified as a round or oval small nucleus in the cytoplasm with the same staining intensity as the main nucleus. The diameter of each micronucleus should be less than 1/2 of the diameter of the main nucleus. Two investigators observed the slides. Each investigator scored 1000 cells for the frequency of micronucleated cells. Data from the two investigators were combined for each culture and the combined data from duplicate cultures were pooled for each concentration for each treatment condition. A cell having one or more micronuclei was recorded as a micronucleated cell.

[2] = biological target: T1, rat N type calcium channel (Rattus norvegicus, UniProt Q02294); assay: Eurofins selectivity panel: N type calcium channel; type: binding
T1 construct: purchased Eurofins Inc

[3] = general in vitro toxicity and ADME tests; conditions: solubility, PAMPA, MDR1, stability, CYP inhibition, CYP induction/PXR, hERG, cytotoxicity, umu, Ames, in vitro micronucleus test
[4] = pharmacokinetic study in neonatal/juvenile FVB mice, intraperitoneal; type: in vivo; conditions: for Kp / Cmax / MRT / Tmax: male, mouse, ip; for Kp: brain/plasma, read-out: Kp (AUC0–120h ratio)
Method: TEC-1 was intraperitoneally administered at doses of 0.2, 0.6, and 2 mg/kg (suspended in saline/0.9% NaCl solution) to male FVB mice (10 days old, 3 mice per a time point). After administration, brain samples and blood samples with heparinized capillary tubes from heart were collected. Blood samples were centrifuged to obtain the plasma fraction. Brain samples were homogenized in 20% (w/v) saline. The samples were deproteinized with acetonitrile followed by centrifugation and the supernatants were analyzed by LC/MS/MS to obtain TEC-1 concentrations of the plasma and brain.

[5] = brain, 0.2 mg/kg i.p. single, juvenile FVB mice
[6] = brain, 0.6 mg/kg i.p. single, juvenile FVB mice
[7] = brain, 2 mg/kg i.p. single, juvenile FVB mice
[8] = plasma, 0.2 mg/kg i.p. single, juvenile FVB mice
[9] = plasma, 0.6 mg/kg i.p. single, juvenile FVB mice
[10] = plasma, 2 mg/kg i.p. single, juvenile FVB mice

T1 sequence (Q02294 whole entry): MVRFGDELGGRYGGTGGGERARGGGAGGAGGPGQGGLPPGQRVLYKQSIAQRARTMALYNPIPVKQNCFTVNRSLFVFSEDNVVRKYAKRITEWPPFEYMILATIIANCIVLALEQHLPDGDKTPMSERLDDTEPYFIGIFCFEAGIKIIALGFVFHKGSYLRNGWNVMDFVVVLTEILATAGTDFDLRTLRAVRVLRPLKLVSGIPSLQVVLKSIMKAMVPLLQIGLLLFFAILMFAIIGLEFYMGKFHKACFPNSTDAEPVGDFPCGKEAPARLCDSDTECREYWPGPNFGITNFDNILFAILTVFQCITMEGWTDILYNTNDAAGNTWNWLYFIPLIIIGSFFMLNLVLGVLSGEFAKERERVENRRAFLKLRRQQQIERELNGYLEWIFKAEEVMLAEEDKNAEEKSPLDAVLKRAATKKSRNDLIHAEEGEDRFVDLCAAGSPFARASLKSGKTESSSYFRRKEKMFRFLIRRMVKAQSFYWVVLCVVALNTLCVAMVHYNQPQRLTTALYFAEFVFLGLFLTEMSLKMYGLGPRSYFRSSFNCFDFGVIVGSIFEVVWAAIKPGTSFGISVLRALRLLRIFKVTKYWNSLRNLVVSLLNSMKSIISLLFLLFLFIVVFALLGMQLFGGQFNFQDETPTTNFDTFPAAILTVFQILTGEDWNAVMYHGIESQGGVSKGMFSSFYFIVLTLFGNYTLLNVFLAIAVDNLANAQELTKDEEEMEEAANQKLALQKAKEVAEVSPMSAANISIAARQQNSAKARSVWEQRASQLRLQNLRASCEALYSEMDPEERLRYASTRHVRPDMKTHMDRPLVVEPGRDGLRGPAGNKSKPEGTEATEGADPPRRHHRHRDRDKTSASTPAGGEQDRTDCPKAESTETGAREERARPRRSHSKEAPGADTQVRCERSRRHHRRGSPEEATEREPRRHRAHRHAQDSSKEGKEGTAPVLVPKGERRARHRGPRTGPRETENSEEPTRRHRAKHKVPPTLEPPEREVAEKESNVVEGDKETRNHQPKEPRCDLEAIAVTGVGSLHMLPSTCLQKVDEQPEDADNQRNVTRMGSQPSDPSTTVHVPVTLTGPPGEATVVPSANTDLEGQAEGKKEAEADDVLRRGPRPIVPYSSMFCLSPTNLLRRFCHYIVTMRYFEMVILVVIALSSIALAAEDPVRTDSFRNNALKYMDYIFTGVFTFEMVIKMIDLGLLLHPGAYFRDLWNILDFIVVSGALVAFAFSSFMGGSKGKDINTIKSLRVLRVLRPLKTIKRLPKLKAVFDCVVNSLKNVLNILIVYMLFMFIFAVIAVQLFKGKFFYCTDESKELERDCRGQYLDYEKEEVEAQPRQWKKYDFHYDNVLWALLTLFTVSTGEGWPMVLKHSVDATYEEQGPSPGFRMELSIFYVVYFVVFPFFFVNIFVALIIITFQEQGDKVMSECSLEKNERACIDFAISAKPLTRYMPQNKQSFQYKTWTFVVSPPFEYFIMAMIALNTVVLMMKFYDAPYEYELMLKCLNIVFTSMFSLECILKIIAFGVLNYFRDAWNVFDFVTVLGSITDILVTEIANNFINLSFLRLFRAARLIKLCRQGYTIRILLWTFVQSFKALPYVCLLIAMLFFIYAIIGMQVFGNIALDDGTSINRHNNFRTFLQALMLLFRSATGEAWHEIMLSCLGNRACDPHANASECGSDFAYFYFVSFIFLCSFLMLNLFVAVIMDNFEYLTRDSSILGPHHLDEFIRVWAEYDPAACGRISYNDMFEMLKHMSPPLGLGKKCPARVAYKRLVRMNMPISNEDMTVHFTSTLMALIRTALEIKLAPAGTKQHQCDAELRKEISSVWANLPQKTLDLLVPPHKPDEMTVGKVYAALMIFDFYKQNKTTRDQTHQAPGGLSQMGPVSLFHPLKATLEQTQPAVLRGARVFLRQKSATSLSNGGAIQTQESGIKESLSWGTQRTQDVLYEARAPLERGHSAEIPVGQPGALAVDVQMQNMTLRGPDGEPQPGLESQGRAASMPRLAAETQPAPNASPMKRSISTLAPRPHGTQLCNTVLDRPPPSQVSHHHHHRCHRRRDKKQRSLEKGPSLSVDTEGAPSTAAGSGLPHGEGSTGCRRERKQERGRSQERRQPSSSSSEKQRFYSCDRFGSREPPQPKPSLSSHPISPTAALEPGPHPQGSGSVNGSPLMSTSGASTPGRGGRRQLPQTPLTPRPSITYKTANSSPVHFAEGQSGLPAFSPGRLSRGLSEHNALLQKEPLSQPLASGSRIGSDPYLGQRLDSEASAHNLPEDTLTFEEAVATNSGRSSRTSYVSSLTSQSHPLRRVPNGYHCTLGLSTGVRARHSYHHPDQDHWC
T1 sequence (P54287 whole entry partner): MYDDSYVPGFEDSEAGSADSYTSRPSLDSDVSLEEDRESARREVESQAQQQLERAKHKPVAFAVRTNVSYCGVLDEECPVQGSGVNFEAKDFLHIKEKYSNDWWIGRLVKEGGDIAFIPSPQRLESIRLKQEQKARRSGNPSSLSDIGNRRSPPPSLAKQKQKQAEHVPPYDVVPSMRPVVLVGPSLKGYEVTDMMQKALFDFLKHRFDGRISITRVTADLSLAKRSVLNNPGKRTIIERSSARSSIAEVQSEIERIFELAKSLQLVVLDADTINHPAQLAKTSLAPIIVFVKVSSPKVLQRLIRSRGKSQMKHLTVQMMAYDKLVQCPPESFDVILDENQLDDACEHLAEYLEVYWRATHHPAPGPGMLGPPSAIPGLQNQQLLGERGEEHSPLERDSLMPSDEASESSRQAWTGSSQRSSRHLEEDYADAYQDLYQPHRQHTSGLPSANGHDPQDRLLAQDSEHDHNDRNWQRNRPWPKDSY
T1 sequence (P54290 25-944 partner limits assumed): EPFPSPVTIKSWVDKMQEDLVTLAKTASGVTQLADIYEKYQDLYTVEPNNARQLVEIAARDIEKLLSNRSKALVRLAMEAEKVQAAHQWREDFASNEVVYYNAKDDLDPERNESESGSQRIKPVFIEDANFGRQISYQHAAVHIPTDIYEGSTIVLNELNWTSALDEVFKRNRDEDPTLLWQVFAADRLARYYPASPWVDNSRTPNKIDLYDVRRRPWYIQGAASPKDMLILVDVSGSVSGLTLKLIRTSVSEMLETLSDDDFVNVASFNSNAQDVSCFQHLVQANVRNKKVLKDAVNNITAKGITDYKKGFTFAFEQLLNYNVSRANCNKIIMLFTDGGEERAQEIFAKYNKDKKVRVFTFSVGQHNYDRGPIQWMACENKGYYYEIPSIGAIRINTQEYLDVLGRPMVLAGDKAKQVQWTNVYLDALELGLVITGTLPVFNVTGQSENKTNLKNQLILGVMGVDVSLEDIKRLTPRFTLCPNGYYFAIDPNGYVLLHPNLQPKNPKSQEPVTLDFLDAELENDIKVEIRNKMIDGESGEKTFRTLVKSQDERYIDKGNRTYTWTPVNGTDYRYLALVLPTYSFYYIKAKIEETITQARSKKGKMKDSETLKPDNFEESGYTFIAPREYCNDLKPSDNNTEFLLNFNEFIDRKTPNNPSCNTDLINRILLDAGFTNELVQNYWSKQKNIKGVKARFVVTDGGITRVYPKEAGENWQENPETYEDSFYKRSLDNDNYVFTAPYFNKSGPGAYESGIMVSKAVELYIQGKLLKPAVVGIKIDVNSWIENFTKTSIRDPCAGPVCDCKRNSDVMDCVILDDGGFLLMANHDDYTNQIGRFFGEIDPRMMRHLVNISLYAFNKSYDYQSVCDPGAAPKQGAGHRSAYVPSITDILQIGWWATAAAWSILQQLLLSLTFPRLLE
T1 sequence (P54290 945-1091 partner limits assumed): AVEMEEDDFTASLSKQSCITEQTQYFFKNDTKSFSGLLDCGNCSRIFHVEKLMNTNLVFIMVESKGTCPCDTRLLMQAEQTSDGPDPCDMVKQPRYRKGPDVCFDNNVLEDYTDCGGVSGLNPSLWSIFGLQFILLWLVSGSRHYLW

Question: Which “effect on biological activity of 106 representative proteins” value [1] does the source give for `Cc1cn2nc(-c3nc4ccc(N5CCN(C)CC5)cc4c(=O)[nH]3)cc2c(C)n1` [TEC-1, 2-(4,6-dimethylpyrazolo[1,5-a]pyrazin-2-yl)-6-(4-methylpiperazin-1-yl)quinazolin-4(3H)-one] here?
Answer: Its value is “weakly affected the biological activity of only two targets”.

Question: And the “micronucleus induction, overall conclusion” value (TK6 cells)?
Answer: The value was “do not induce micronucleation”.

Question: And the “concentration at which precipitation was noted” value (TK6 cells; 24-h assay condition, culture medium)?
Answer: Its value is no less than 1.5 µg/mL.

Question: What about the “concentration at which cytotoxicity (RPD of less than 50%) was noted” value (TK6 cells; human, 3 h) of the same molecule?
Answer: The value was no less than 2.3 µg/mL.

Question: What about the “Micronucleated cells (%)” value (TK6 cells; human, 3 h, 1.9 µg/mL) of the same molecule?
Answer: Its value is “(0.73) %”.

Question: What about the “Micronucleated cells Total” value (TK6 cells; human, 3 h, 1.9 µg/mL) of the same molecule?
Answer: The value was 29.

Question: And the “Micronucleated cells Well 1” value (TK6 cells; human, 3 h, 1.9 µg/mL)?
Answer: Its value is 13.

Question: What about the “Micronucleated cells Well 2” value (TK6 cells; human, 3 h, 1.9 µg/mL) of the same molecule?
Answer: Its value is 16.

Question: And the Relative population doubling (TK6 cells; human, 3 h, 1.9 µg/mL)?
Answer: Its Relative population doubling is 68.6%.

Question: And the “Micronucleated cells (%)” value (TK6 cells; human, 3 h, 2.1 µg/mL)?
Answer: The value was “(0.9) %”.

Question: And the “Micronucleated cells Total” value (TK6 cells; human, 3 h, 2.1 µg/mL)?
Answer: The value was 36.

Question: And the “Micronucleated cells Well 1” value (TK6 cells; human, 3 h, 2.1 µg/mL)?
Answer: The value was 16.

Question: And the “Micronucleated cells Well 2” value (TK6 cells; human, 3 h, 2.1 µg/mL)?
Answer: Its value is 20.

Question: What about the Relative population doubling (TK6 cells; human, 3 h, 2.1 µg/mL) of the same molecule?
Answer: The Relative population doubling was 65.4%.

Question: What about the “Micronucleated cells (%)” value (TK6 cells; human, 3 h, 2.3 µg/mL) of the same molecule?
Answer: The value was “(1.4) **^,## %”.

Question: What about the “Micronucleated cells Total” value (TK6 cells; human, 3 h, 2.3 µg/mL) of the same molecule?
Answer: Its value is 56.

Question: And the “Micronucleated cells Well 1” value (TK6 cells; human, 3 h, 2.3 µg/mL)?
Answer: The value was 29.

Question: What about the “Micronucleated cells Well 2” value (TK6 cells; human, 3 h, 2.3 µg/mL) of the same molecule?
Answer: Its value is 27.

Question: And the Relative population doubling (TK6 cells; human, 3 h, 2.3 µg/mL)?
Answer: The Relative population doubling was 35.0%.

Question: And the “Micronucleated cells (%)” value (TK6 cells; human, 24 h, 1.1 µg/mL)?
Answer: Its value is “(0.85) %”.

Question: What about the “Micronucleated cells Total” value (TK6 cells; human, 24 h, 1.1 µg/mL) of the same molecule?
Answer: The value was 34.

Question: What about the “Micronucleated cells Well 1” value (TK6 cells; human, 24 h, 1.1 µg/mL) of the same molecule?
Answer: Its value is 21.

Question: What about the “Micronucleated cells Well 2” value (TK6 cells; human, 24 h, 1.1 µg/mL) of the same molecule?
Answer: Its value is 13.

Question: And the Relative population doubling (TK6 cells; human, 24 h, 1.1 µg/mL)?
Answer: The Relative population doubling was 81.7%.

Question: And the “Micronucleated cells (%)” value (TK6 cells; human, 24 h, 1.3 µg/mL)?
Answer: The value was “(0.73) %”.

Question: And the “Micronucleated cells Total” value (TK6 cells; human, 24 h, 1.3 µg/mL)?
Answer: The value was 29.

Question: And the “Micronucleated cells Well 1” value (TK6 cells; human, 24 h, 1.3 µg/mL)?
Answer: Its value is 17.

Question: And the “Micronucleated cells Well 2” value (TK6 cells; human, 24 h, 1.3 µg/mL)?
Answer: The value was 12.

Question: What about the Relative population doubling (TK6 cells; human, 24 h, 1.3 µg/mL) of the same molecule?
Answer: Its Relative population doubling is 74.4%.

Question: And the “Micronucleated cells (%)” value (TK6 cells; human, 24 h, 1.5 µg/mL)?
Answer: Its value is “(0.8) %”.

Question: And the “Micronucleated cells Total” value (TK6 cells; human, 24 h, 1.5 µg/mL)?
Answer: Its value is 32.

Question: What about the “Micronucleated cells Well 1” value (TK6 cells; human, 24 h, 1.5 µg/mL) of the same molecule?
Answer: Its value is 17.

Question: And the “Micronucleated cells Well 2” value (TK6 cells; human, 24 h, 1.5 µg/mL)?
Answer: Its value is 15.

Question: What about the Relative population doubling (TK6 cells; human, 24 h, 1.5 µg/mL) of the same molecule?
Answer: Its Relative population doubling is 69.5%.

Question: And the IC50 [2]?
Answer: Its IC50 is 8.8 µM.

Question: What about the “general in vitro toxicity and ADME profile” value [3] of the same molecule?
Answer: Its value is “good profiles”.

Question: What about the “AUC0–24 h” value [4, 5] of the same molecule?
Answer: The value was 69.7 ng･h/g.

Question: What about the “AUC0–120 h” value [4, 5] of the same molecule?
Answer: The value was 87.7 ng･h/g.

Question: And the “AUC0–24 h” value [4, 6]?
Answer: The value was 600.3 ng･h/g.

Question: What about the “AUC0–120 h” value [4, 6] of the same molecule?
Answer: The value was 716.7 ng･h/g.

Question: And the “AUC0–24 h” value [4, 7]?
Answer: Its value is 3547.9 ng･h/g.

Question: What about the “AUC0–120 h” value [4, 7] of the same molecule?
Answer: Its value is 8261.5 ng･h/g.

Question: What about the Kp ([4]; 0.2 mg/kg i.p. single, juvenile FVB mice) of the same molecule?
Answer: Its Kp is 5.8.

Question: And the Kp ([4]; 0.6 mg/kg i.p. single, juvenile FVB mice)?
Answer: Its Kp is 4.8.

Question: What about the Kp ([4]; 2 mg/kg i.p. single, juvenile FVB mice) of the same molecule?
Answer: The Kp was 4.5.

Question: What about the Cmax [4, 5] of the same molecule?
Answer: Its Cmax is 10.5 ng/g.

Question: And the MRT [4, 5]?
Answer: Its MRT is 11.2 h.

Question: What about the Tmax [4, 5] of the same molecule?
Answer: The Tmax was 30 min.

Question: What about the Cmax [4, 6] of the same molecule?
Answer: The Cmax was 63.2 ng/g.

Question: And the MRT [4, 6]?
Answer: The MRT was 11.8 h.

Question: What about the Tmax [4, 6] of the same molecule?
Answer: Its Tmax is 60 min.

Question: And the Cmax [4, 7]?
Answer: Its Cmax is 219 ng/g.

Question: What about the MRT [4, 7] of the same molecule?
Answer: The MRT was 35.8 h.

Question: And the Tmax [4, 7]?
Answer: The Tmax was 60 min.

Question: What about the Cmax ([4]; plasma, 0.2 mg/kg i.p. single, juvenile (10-day-old) FVB mice, n = 3, pool) of the same molecule?
Answer: Its Cmax is 2.2 ng/mL.

Question: What about the MRT [4, 8] of the same molecule?
Answer: Its MRT is 7.21 h.

Question: And the Tmax [4, 8]?
Answer: The Tmax was 30 min.

Question: And the Cmax [4, 9]?
Answer: The Cmax was 11.3 ng/mL.

Question: What about the MRT [4, 9] of the same molecule?
Answer: Its MRT is 10.7 h.

Question: What about the Tmax [4, 9] of the same molecule?
Answer: The Tmax was 30 min.

Question: What about the Cmax [4, 10] of the same molecule?
Answer: The Cmax was 42 ng/mL.

Question: And the MRT [4, 10]?
Answer: Its MRT is 40.4 h.

Question: And the Tmax [4, 10]?
Answer: The Tmax was 180 min.

Question: And the “AUC0–24 h” value [4, 8]?
Answer: Its value is 15.2 ng･h/mL.

Question: What about the “AUC0–120 h” value [4, 8] of the same molecule?
Answer: The value was 15.2 ng･h/mL.

Question: What about the “AUC0–24 h” value [4, 9] of the same molecule?
Answer: Its value is 129.9 ng･h/mL.

Question: And the “AUC0–120 h” value [4, 9]?
Answer: Its value is 149.1 ng･h/mL.

Question: What about the “AUC0–24 h” value [4, 10] of the same molecule?
Answer: The value was 718.6 ng･h/mL.

Question: And the “AUC0–120 h” value [4, 10]?
Answer: The value was 1829.8 ng･h/mL.

— publication PMC7562719, “Discovery of a CNS penetrant small molecule SMN2 splicing modulator with improved tolerability for spinal muscular atrophy” (Scientific Reports, 2020)
